In patent publication US10226471B2, “Modified-release dosage forms of 5-HT2C agonists useful for weight management” (Arena Pharmaceuticals, Inc., priority 2010, dated 2019):
Where two headings read alike, the source gives them in different places.

Assays:
[1] = Solubility of salts in water (UPLC or gravimetry); type: physicochemical
Description: Acquity ultra performance liquid chromatography (UPLC) from Waters was used for solubility and stoichiometry determination. […] UPLC was equipped with Acquity PDA detector. UPLC mobile phase solvent A was 0.1% TFA in DI-water, solvent B was 0.1% TFA in acetonitrile.
Column temperature was 40±5° C. Acquity UPLC® HSS T3 1.8 μm, 2.1×50 mm column was used.
A known amount of sample was dissolved in water and analyzed by UPLC.

[2] = Biopharmaceutics Classification System classification; type: physicochemical
Excerpt: An immediate-release, film-coated 10-mg tablet was developed for the phase 3 clinical trials and commercialization of Compound 1 (Example 5).

[3] = Dynamic moisture-sorption (DMS); type: physicochemical; conditions: for hygroscopicity by DMS: isotherm 25° C.; for DMS weight gain at 90% RH: out to and including the 90% RH hold at 25° C.
Description: Dynamic moisture-sorption (DMS) studies were conducted using a dynamic moisture-sorption analyzer, VTI Corporation, SGA-100, equipment #0228. Samples were prepared for DMS analysis by placing 5 mg to 20 mg of a sample in a tared sample holder. The sample was placed on the hang-down wire of the VTI balance. A drying step was run, typically at 40° C. and 0.5-1% RH for 1-2 h. The isotherm temperature is 25° C. Defined % RH holds typically ranged from 10% RH to 90% RH or 95% RH, with intervals of 10 to 20% RH. A % weight change smaller than 0.010% over a specified number of minutes (typically 10-20), or up to 2 h, whichever occurs first, is required before continuing to the next % RH hold. The water content of the sample equilibrated as described above was determined at each % RH hold.

[4] = Deliquescence relative humidity (DRH) by water activity meter; type: physicochemical; conditions: saturated aqueous solution with excess solid, 25° C.
[5] = 26-day body weight study, oral gavage versus osmotic minipump; type: in vivo, male Sprague Dawley rats
Description: 30 male Sprague Dawley rats weighing 275-320 g were singly housed and maintained on a 12 h:12 h light-dark cycle (lights on at 23:00 h). Food and water were available ad libitum at all times except during the first day after pump implantation (see below). All rats were habituated to injection and handling procedures for one week prior to study onset.
For the purposes of dose calculation each rat was assumed to weigh 320 g at the start of the study. Rats receiving Compound 1 hydrochloride salt PO were given a fixed daily dose of 7.68 mg, whereas rats in the pump group received a total fixed daily dose of 4.84 mg (for calculations see Example 2.1).
Osmotic minipumps (Alzet® model 2ML4, Durect Corp, CA) were filled with either vehicle (0.9% saline, n=20), or Compound 1 hydrochloride salt solutions and submerged overnight in a 0.9% saline solution to reach equilibrium. […] All subjects were then implanted with the minipumps. Briefly, under isoflourane anaesthesia the nape of the neck was shaved, a mid-scapular incision was made and a subcutaneous pocket was created for the minipump. A minipump was then inserted into the pocket and the incision was closed using surgical staples. Rats were then returned to homecage for recovery. Rats in VEH and PO groups received pumps primed with vehicle; whereas rats in the PUMP group received Compound 1 hydrochloride salt-filled pumps. Because steady state levels of Compound 1 in vivo in the PUMP group were not predicted to be reached until at least 24 h post-implantation, food was removed from all rats for approximately one day after surgery. At 10:30 h the next day (Day 1) and for all subsequent days, food and body weight was measured for all subjects, and all subjects were administered either saline (for VEH and PUMP groups), or Compound 1 hydrochloride salt (PO group) via oral gavage. Food intake and body weight were measured for a total of 26 days.

[6] = chronic twice-daily oral administration, high fat diet, 4-week study; cited from earlier work
[7] = Appearance on exposure to light; type: physicochemical; conditions: solid removed from the slurry
[8] = water, thermodynamic from solid, by UPLC, read-out: solubility in water

C[C@H]1CNCCc2ccc(Cl)cc21.C[C@H]1CNCCc2ccc(Cl)cc21.Cl.Cl.O
solubility ([1]; pH range of 1 to 7): exceeds 400 mg/mL | Biopharmaceutics Classification System solubility class [2]: highly soluble

C[C@H]1CNCCc2ccc(Cl)cc21.O=C(O)/C=C/C(=O)O [Compound 1 fumarate salt]
solubility [1, 8]: 4800 µg/mL | hygroscopicity by DMS ([3]; listed as Compound 1 Fumarate Salt, Form I, fumarate salt): FIG. 13: non-hygroscopic up to 90% RH | hygroscopicity by DMS ([3]; listed as Compound 1 fumarate salt, Form I, fumarate salt): non-hygroscopic | DRH (deliquescence relative humidity) [4]: 99 % RH

C[C@H]1CNCCc2ccc(Cl)cc21.C[C@H]1CNCCc2ccc(Cl)cc21.O=S(=O)(O)c1cccc2c(S(=O)(=O)O)cccc12 [Compound 1 heminapadisilate salt]
solubility in water ([1]; by UPLC): 2370 µg/mL

C[C@H]1CNCCc2ccc(Cl)cc21.C[C@H]1CNCCc2ccc(Cl)cc21.O.O=C(O)c1cc2ccccc2c(Cc2c(O)c(C(=O)O)cc3ccccc23)c1O [Compound 1 hemipamoate salt hydrate]
solubility in water ([1]; by UPLC): 24 µg/mL | hygroscopicity by DMS [3]: slightly hygroscopic | DMS weight gain at 90% RH ([3]; listed as Compound 1 Hemipamoate Salt Hydrate, Form I, hydrate): FIG. 41: ~1.472% weight gain at about 90% RH | DMS weight gain at 90% RH ([3]; listed as Compound 1 hemipamoate salt hydrate, Form I, hydrate): about 1.472%

C[C@H]1CNCCc2ccc(Cl)cc21.Cl [Compound 1 hydrochloride salt]
body weight gain, PUMP group compared to PO group ([5]; 26 days, p=0.0501, slopes differ p<0.01): lower weight gain in the PUMP group than in the PO group | body weight gain over 26 days compared to saline ([5]; oral gavage once daily, 24 mg/kg/day (fixed 7.68 mg)): significantly decreased | body weight gain over 26 days compared to saline ([5]; osmotic minipump, 15.1 mg/kg/day (fixed 4.84 mg)): significantly decreased | food intake and body weight gain [6]: dose-dependent reductions in food intake and body weight gain

C[C@H]1CNCCc2ccc(Cl)cc21.I [Compound 1 hydroiodide salt]
solubility ([1]; water, thermodynamic from solid, 27° C., by gravimetry (confirmed by UPLC), read-out: solubility in water): 5500 µg/mL | hygroscopicity by DMS ([3]; Form I, hydroiodide salt): FIG. 7: non-hygroscopic | hygroscopicity by DMS ([3]; hydroiodide salt): non-hygroscopic | DRH (deliquescence relative humidity) [4]: 99 % RH | colour change on exposure to light [7]: did yellow noticeably within hours when exposed to light

C[C@H]1CNCCc2ccc(Cl)cc21.O=C(O)/C=C\C(=O)O [Compound 1 maleate salt]
solubility [1, 8]: 33000 µg/mL | hygroscopicity by DMS [3]: not hygroscopic | DMS weight gain at 90% RH ([3]; maleate salt): 0.15% | DRH (deliquescence relative humidity) [4]: 99 % RH
